Target: Acetylcholinesterase (Electrophorus electricus, UniProt O42275)
Assay: Inhibition of electric eel AChE using acetylthiocholine substrate by Ellman's reagent based method

Sequence of Acetylcholinesterase (O42275 whole entry): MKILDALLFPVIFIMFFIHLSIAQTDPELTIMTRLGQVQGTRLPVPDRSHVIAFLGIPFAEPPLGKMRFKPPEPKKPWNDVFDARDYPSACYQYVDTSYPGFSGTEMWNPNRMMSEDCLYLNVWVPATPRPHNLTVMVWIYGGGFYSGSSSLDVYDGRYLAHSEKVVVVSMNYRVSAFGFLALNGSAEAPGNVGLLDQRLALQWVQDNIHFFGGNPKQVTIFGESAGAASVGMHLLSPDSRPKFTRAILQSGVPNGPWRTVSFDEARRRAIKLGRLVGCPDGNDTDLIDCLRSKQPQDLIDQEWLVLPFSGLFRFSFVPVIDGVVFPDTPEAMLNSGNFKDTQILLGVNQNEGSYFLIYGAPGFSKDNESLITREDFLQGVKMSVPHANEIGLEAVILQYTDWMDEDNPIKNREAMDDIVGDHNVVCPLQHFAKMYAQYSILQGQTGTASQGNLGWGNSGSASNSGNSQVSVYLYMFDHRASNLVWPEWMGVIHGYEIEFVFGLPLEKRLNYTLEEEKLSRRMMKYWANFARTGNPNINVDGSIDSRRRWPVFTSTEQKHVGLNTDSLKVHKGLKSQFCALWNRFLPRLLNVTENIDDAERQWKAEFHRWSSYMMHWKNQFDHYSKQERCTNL

SMILES | IC50
Brc1ccc2oc(-c3cc[n+](Cc4ccccc4)cc3)cc2c1 | 13.5 nM
O=[N+]([O-])c1ccc(C[n+]2ccc(-c3cc4ccccc4o3)cc2)cc1 | 5.8 nM
O=[N+]([O-])c1ccc(C[n+]2ccc(-c3cc4cc(Br)ccc4o3)cc2)cc1 | 8.1 nM
COc1cccc2cc(-c3cc[n+](Cc4ccc(Br)cc4)cc3)oc12 | 29.5 nM
Cc1cc(C)cc(C[n+]2ccc(-c3cc4ccccc4o3)cc2)c1 | 4.1 nM
COc1cccc2cc(-c3cc[n+](Cc4ccccc4)cc3)oc12 | 26.5 nM
COc1cccc2cc(-c3cc[n+](Cc4cccc(F)c4)cc3)oc12 | 18.9 nM
O=[N+]([O-])c1ccccc1C[n+]1ccc(-c2cc3ccccc3o2)cc1 | 4.9 nM
COc1cccc2cc(-c3cc[n+](Cc4ccc([N+](=O)[O-])cc4)cc3)oc12 | 10.6 nM
Cc1ccccc1C[n+]1ccc(-c2cc3ccccc3o2)cc1 | 6.8 nM
Brc1ccc(C[n+]2ccc(-c3cc4cc(Br)ccc4o3)cc2)cc1 | 31.5 nM
Brc1ccc(C[n+]2ccc(-c3cc4ccccc4o3)cc2)cc1 | 16 nM
Fc1cccc(C[n+]2ccc(-c3cc4cc(Br)ccc4o3)cc2)c1 | 9.6 nM
COc1cccc2cc(-c3cc[n+](Cc4cccc(Br)c4)cc3)oc12 | 22.4 nM
Fc1ccc(C[n+]2ccc(-c3cc4cc(Br)ccc4o3)cc2)cc1 | 8.7 nM

Target: Acetylcholinesterase (Electrophorus electricus) (UniProt O42275)
Sequence (O42275 24-633 limits assumed): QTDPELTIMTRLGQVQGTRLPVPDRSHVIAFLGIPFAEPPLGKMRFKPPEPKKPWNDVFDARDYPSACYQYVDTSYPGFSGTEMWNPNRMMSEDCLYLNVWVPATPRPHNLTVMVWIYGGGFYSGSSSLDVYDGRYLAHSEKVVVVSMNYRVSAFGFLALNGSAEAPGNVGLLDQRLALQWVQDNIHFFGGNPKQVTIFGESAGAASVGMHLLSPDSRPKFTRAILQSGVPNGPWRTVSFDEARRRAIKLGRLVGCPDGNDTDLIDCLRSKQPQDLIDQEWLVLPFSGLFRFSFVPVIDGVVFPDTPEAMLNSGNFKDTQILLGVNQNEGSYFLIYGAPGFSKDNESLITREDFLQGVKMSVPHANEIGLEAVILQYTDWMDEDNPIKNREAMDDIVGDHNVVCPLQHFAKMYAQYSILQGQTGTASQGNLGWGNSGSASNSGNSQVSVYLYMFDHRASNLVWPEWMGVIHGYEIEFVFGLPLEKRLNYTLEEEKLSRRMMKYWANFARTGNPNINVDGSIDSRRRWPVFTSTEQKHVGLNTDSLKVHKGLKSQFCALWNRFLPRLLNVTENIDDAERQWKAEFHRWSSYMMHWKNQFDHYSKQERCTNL
Assay: Potency index, ratio of IC50 for donepezil to IC50 for compound against electric eel AChE using acetylthiocholine substrate by Ellman's reagent based method

SMILES | Ratio IC50
Cc1cc(C)cc(C[n+]2ccc(-c3cc4ccccc4o3)cc2)c1 | 7

From ChEMBL document CHEMBL3407445, “Benzofuran-derived benzylpyridinium bromides as potent acetylcholinesterase inhibitors” (Eur J Med Chem, 2015)
